How the values were obtained:
barnyardgrass [1] = test: Test A preemergence; format: in vivo, Echinochloa crus-galli; conditions: for Barnyardgrass plant response rating (0 to 100 scale): 31 g ai/ha; for Plant response rating, Barnyardgrass: 125 g ai/ha, 0 to 100 scale where 0 is no effect and 100 is complete control
How it was run: (§1)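 Pre- and postemergence greenhouse screen. Soil: loam + sand. Spray carrier: solvent mixture, non-phytotoxic, with surfactant. Post timing at 1–2 leaves, height 2–10 cm. Readout: visual injury on a 0–100 scale roughly 10 days after application, untreated plants as reference.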

sedge, umbrella = test: Test B flooded paddy test; format: in vivo, Cyperus difformis; conditions: Flood, 250 g ai/ha; 0 to 100 scale where 0 is no effect and 100 is complete control
How it was run: (§2)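 Plants were grown to the 2-leaf stage, then pots were flooded to 3 cm above the soil and compounds were applied directly into the paddy water. That depth was held throughout, and after 13 to 15 days in the greenhouse injury was rated visually against controls on a 0–100 scale (0 no effect, 100 complete control).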

wheat = test: Test A postemergence; format: in vivo, Triticum aestivum; conditions: for Plant response rating, Wheat: 31 g ai/ha, 0 to 100 scale, 0 no effect, 100 complete control
How it was run: as §1

blackgrass = test: Test A postemergence; format: in vivo, Alopecurus myosuroides
How it was run: as §1

Heteranthera limosa = test: Test B flooded paddy test; format: in vivo; conditions: Flood, 250 g ai/ha; 0 to 100 scale where 0 is no effect and 100 is complete control
How it was run: as §2

Italian ryegrass [2] = test: Test A postemergence; format: in vivo, Lolium multiflorum; conditions: for Plant response rating, Ryegrass, Italian: 31 g ai/ha, 0 to 100 scale, 0 no effect, 100 complete control
How it was run: as §1

rice = test: Test B flooded paddy test; format: in vivo, Oryza sativa; conditions: Flood, 250 g ai/ha; 0 to 100 scale where 0 is no effect and 100 is complete control
How it was run: as §2

corn = test: Test A postemergence; format: in vivo, Zea mays
How it was run: as §1

pigweed [3] = test: Test A preemergence; format: in vivo, Amaranthus retroflexus; conditions: for Pigweed plant response rating (0 to 100 scale): 31 g ai/ha; for Plant response rating, Pigweed: 125 g ai/ha, 0 to 100 scale where 0 is no effect and 100 is complete control
How it was run: as §1

pigweed [4] = test: Test A postemergence; format: in vivo, Amaranthus retroflexus; conditions: for Plant response rating, Pigweed: 31 g ai/ha, 0 to 100 scale, 0 no effect, 100 complete control
How it was run: as §1

giant foxtail [5] = test: Test A preemergence; format: in vivo, Setaria faberii; conditions: for Foxtail, Giant plant response rating (0 to 100 scale): 31 g ai/ha; for Plant response rating, Foxtail, Giant: 125 g ai/ha, 0 to 100 scale where 0 is no effect and 100 is complete control
How it was run: as §1

galium = test: Test A postemergence; format: in vivo, Galium aparine
How it was run: as §1

barnyardgrass [6] = test: Test B flooded paddy test; format: in vivo, Echinochloa crus-galli; conditions: Flood, 250 g ai/ha; 0 to 100 scale where 0 is no effect and 100 is complete control
How it was run: as §2

barnyardgrass [7] = test: Test A postemergence; format: in vivo, Echinochloa crus-galli
How it was run: as §1

ragweed [8] = test: Test A preemergence; format: in vivo, Ambrosia elatior; conditions: for Ragweed plant response rating (0 to 100 scale): 31 g ai/ha; for Plant response rating, Ragweed: 125 g ai/ha, 0 to 100 scale where 0 is no effect and 100 is complete control
How it was run: as §1

kochia [9] = test: Test A preemergence; format: in vivo, Kochia scoparia; conditions: for Kochia plant response rating (0 to 100 scale): 31 g ai/ha; for Plant response rating, Kochia: 125 g ai/ha, 0 to 100 scale where 0 is no effect and 100 is complete control
How it was run: as §1

kochia [10] = test: Test A postemergence; format: in vivo, Kochia scoparia
How it was run: as §1

giant foxtail [11] = test: Test A postemergence; format: in vivo, Setaria faberii
How it was run: as §1

ragweed [12] = test: Test A postemergence; format: in vivo, Ambrosia elatior; conditions: for Plant response rating, Ragweed: 31 g ai/ha, 0 to 100 scale, 0 no effect, 100 complete control
How it was run: as §1

Italian ryegrass [13] = test: Test A preemergence; format: in vivo, Lolium multiflorum; conditions: for Ryegrass, Italian plant response rating (0 to 100 scale): 31 g ai/ha; for Plant response rating, Ryegrass, Italian: 125 g ai/ha, 0 to 100 scale where 0 is no effect and 100 is complete control
How it was run: as §1

[14] = 31 g ai/ha, 0 to 100 scale, 0 no effect, 100 complete control
[15] = 125 g ai/ha, 0 to 100 scale where 0 is no effect and 100 is complete control

Compound | Barnyardgrass plant response rating (0 to 100 scale) (barnyardgrass [1]) | Plant response rating, Barnyardgrass (barnyardgrass [1]) | Plant response rating, Sedge, Umbrella (sedge, umbrella) | Plant response rating, Wheat (wheat) | Plant response rating, Blackgrass (blackgrass; [14]) | Plant response rating, Ducksalad (Heteranthera limosa) | Plant response rating, Ryegrass, Italian (Italian ryegrass [2]) | Plant response rating, Rice (rice) | Plant response rating, Corn (corn; [14]) | Pigweed plant response rating (0 to 100 scale) (pigweed [3]) | Plant response rating, Pigweed (pigweed [3]) | Plant response rating, Pigweed (pigweed [4]) | Foxtail, Giant plant response rating (0 to 100 scale) (giant foxtail [5]) | Plant response rating, Foxtail, Giant (giant foxtail [5]) | Plant response rating, Galium (galium; [14]) | Plant response rating, Barnyardgrass (barnyardgrass [6]) | Plant response rating, Barnyardgrass (barnyardgrass [7]; [14]) | Ragweed plant response rating (0 to 100 scale) (ragweed [8]) | Plant response rating, Ragweed (ragweed [8]) | Kochia plant response rating (0 to 100 scale) (kochia [9]) | other results
CC(C)Oc1cnn(-c2c(Cl)cccc2Oc2ncc(Cl)cn2)c1 [Compound 103] | 0 | 0 | 0 | 0 | 0 | 0 | 0 | 0 | 0 | 0 | 0 | 0 | 0 | 0 | 0 | 0 | 0 | 0 | 0 | 0 | Plant response rating, Blackgrass (blackgrass; [15]): 0; Plant response rating, Corn (corn; [15]): 0; Plant response rating, Galium (galium; [15]): 0; Plant response rating, Barnyardgrass (barnyardgrass [7]; [15]): 0; Plant response rating, Kochia (kochia [9]): 0; Plant response rating, Kochia (kochia [10]; [14]): 0; Plant response rating, Kochia (kochia [10]; [15]): 0; Plant response rating, Foxtail, Giant (giant foxtail [11]; [14]): 0; Plant response rating, Foxtail, Giant (giant foxtail [11]; [15]): 0; Plant response rating, Ragweed (ragweed [12]): 0; Ryegrass, Italian plant response rating (0 to 100 scale) (Italian ryegrass [13]): 0; Plant response rating, Ryegrass, Italian (Italian ryegrass [13]): 0
Fc1cccc(Oc2ncc(Cl)cn2)c1-n1cc(C2CCCC2)nn1 [Compound 106] | 0 | 40 | 90 | 0 | 30 | 75 | 0 | 0 | 0 | 10 | 60 | 50 | 30 | 70 | 50 | 0 | 0 | 0 | 0 | 0 | Plant response rating, Blackgrass (blackgrass; [15]): 50; Plant response rating, Corn (corn; [15]): 20; Plant response rating, Galium (galium; [15]): 70; Plant response rating, Barnyardgrass (barnyardgrass [7]; [15]): 50; Plant response rating, Kochia (kochia [9]): 0; Plant response rating, Kochia (kochia [10]; [14]): 0; Plant response rating, Kochia (kochia [10]; [15]): 50; Plant response rating, Foxtail, Giant (giant foxtail [11]; [14]): 50; Plant response rating, Foxtail, Giant (giant foxtail [11]; [15]): 70; Plant response rating, Ragweed (ragweed [12]): 20; Ryegrass, Italian plant response rating (0 to 100 scale) (Italian ryegrass [13]): 0; Plant response rating, Ryegrass, Italian (Italian ryegrass [13]): 0
CC(C)Cc1cn(-c2c(F)cccc2Oc2ncc(Cl)cn2)nn1 [Compound 107] | 10 | 60 | 70 | 10 | 10 | 40 | 0 | 0 | 0 | 0 | 50 | 40 | 30 | 80 | 30 | 30 | 0 | 0 | 0 | 0 | Plant response rating, Blackgrass (blackgrass; [15]): 50; Plant response rating, Corn (corn; [15]): 20; Plant response rating, Galium (galium; [15]): 80; Plant response rating, Barnyardgrass (barnyardgrass [7]; [15]): 40; Plant response rating, Kochia (kochia [9]): 0; Plant response rating, Kochia (kochia [10]; [14]): 0; Plant response rating, Kochia (kochia [10]; [15]): 20; Plant response rating, Foxtail, Giant (giant foxtail [11]; [14]): 20; Plant response rating, Foxtail, Giant (giant foxtail [11]; [15]): 70; Plant response rating, Ragweed (ragweed [12]): 30; Ryegrass, Italian plant response rating (0 to 100 scale) (Italian ryegrass [13]): 0; Plant response rating, Ryegrass, Italian (Italian ryegrass [13]): 0
Fc1cnc(Oc2cccc(Cl)c2-n2cc(OCC(F)(F)F)cn2)nc1 [Compound 109] | 20 | 60 | 85 | 0 | 20 | 80 | 0 | 0 | 10 | 100 | 100 | 70 | 70 | 90 | 50 | 0 | 10 | 0 | 10 | 20 | Plant response rating, Blackgrass (blackgrass; [15]): 70; Plant response rating, Corn (corn; [15]): 40; Plant response rating, Galium (galium; [15]): 90; Plant response rating, Barnyardgrass (barnyardgrass [7]; [15]): 60; Plant response rating, Kochia (kochia [9]): 60; Plant response rating, Kochia (kochia [10]; [14]): 40; Plant response rating, Kochia (kochia [10]; [15]): 60; Plant response rating, Foxtail, Giant (giant foxtail [11]; [14]): 10; Plant response rating, Foxtail, Giant (giant foxtail [11]; [15]): 70; Plant response rating, Ragweed (ragweed [12]): 10; Ryegrass, Italian plant response rating (0 to 100 scale) (Italian ryegrass [13]): 0; Plant response rating, Ryegrass, Italian (Italian ryegrass [13]): 0
FCc1cccc(Oc2ncc(Cl)cn2)c1-n1cc(C(F)(F)F)cn1 [Compound 119] | 30 | 90 | 95 | 10 | 40 | 95 | 30 | 25 | 10 | 100 | 100 | 70 | 90 | 100 | 70 | 40 | 40 | 0 | 60 | 50 | Plant response rating, Blackgrass (blackgrass; [15]): 70; Plant response rating, Corn (corn; [15]): 50; Plant response rating, Galium (galium; [15]): 100; Plant response rating, Barnyardgrass (barnyardgrass [7]; [15]): 70; Plant response rating, Kochia (kochia [9]): 100; Plant response rating, Kochia (kochia [10]; [14]): 70; Plant response rating, Kochia (kochia [10]; [15]): 90; Plant response rating, Foxtail, Giant (giant foxtail [11]; [14]): 30; Plant response rating, Foxtail, Giant (giant foxtail [11]; [15]): 80; Plant response rating, Ragweed (ragweed [12]): 30; Ryegrass, Italian plant response rating (0 to 100 scale) (Italian ryegrass [13]): 10; Plant response rating, Ryegrass, Italian (Italian ryegrass [13]): 80
COc1cnn(-c2c(F)cccc2Oc2ncc(Cl)cn2)c1 [Compound 121] | 0 | 30 | 0 | 0 | 10 | 45 | 0 | 0 | 0 | 60 | 90 | 10 | 10 | 50 | 10 | 20 | 0 | 0 | 10 | 0 | Wheat plant response rating (wheat; [15]): 0; Blackgrass plant response rating (blackgrass; [15]): 30; Ryegrass, Italian plant response rating (Italian ryegrass [2]; [15]): 0; Corn plant response rating (corn; [15]): 10; Pigweed plant response rating (pigweed [4]; [15]): 40; Galium plant response rating (galium; [15]): 30; Barnyardgrass plant response rating (barnyardgrass [7]; [15]): 20; Plant response rating, Kochia (kochia [9]): 60; Plant response rating, Kochia (kochia [10]; [14]): 20; Kochia plant response rating (kochia [10]; [15]): 40; Plant response rating, Foxtail, Giant (giant foxtail [11]; [14]): 0; Foxtail, Giant plant response rating (giant foxtail [11]; [15]): 30; Plant response rating, Ragweed (ragweed [12]): 10; Ragweed plant response rating (ragweed [12]; [15]): 40; Ryegrass, Italian plant response rating (0 to 100 scale) (Italian ryegrass [13]): 0; Plant response rating, Ryegrass, Italian (Italian ryegrass [13]): 0
